Laboratory results reported in patent publication US20240254093A1, “GPR35 Agonist Compounds” (Heptares Therapeutics Limited, priority 2021, published 2024).

What was measured:
GPR35 = GPR35 (Homo sapiens (Human), UniProt Q9HC97); experiment: Label-free DMR functional assay in HT-29 cells; format: cell-based; details: HT-29 cell line endogenously expressing human GPR35; DMR normalised to Lodoxamide
Experimental: HT-29 cells (ATCC HTB-38) kept in continuous culture in McCoys (Thermo 16600082) supplemented with 10% FBS. Day prior to assay, cells harvested with TrypLE (Gibco12604-013), and plated at 20 k/well in culture media in a total volume of 50 ul in Corning EPIC 384 well plates (5040) overnight 37° C. 5% CO2. On the day of assay, cell media was removed and replaced with assay buffer (HBSS+20 mM HEPES pH7.4) and reincubated for 1 h. Compounds were prepared in 100% DMSO in ECHO LDV 384 source plates. Cell plates were read on an EPIC plate reader at room temperature for 15 mins, read paused, and cell plate added to LabCyte ECHO 550 for addition of 50 nl per well compound by acoustic transfer. Plates were immediately placed back into the EPIC reader, read unpaused and Dynamic Mass Redistribution measured for 60 minutes. Raw data was analysed by EPIC Analyser software and max peak taken per concentration to enable EC50 determination. All raw DMR data was normalised to Lodoxamide and buffer corrected.
(§1) • Ki values derived from concentration response analysis in HEKf cell membranes overexpressing GPR35a isoform. EC50 values derived from concentration response analysis in HT-29 cell line endogenously expressing human GPR35.

Human GPR35a isoform = Human GPR35a isoform (Homo sapiens (Human), UniProt Q9HC97); experiment: Human GPR35a isoform binding (radioligand, HEK293f membranes); details: HEKf cell membranes overexpressing GPR35a isoform; read-out: Human GPR35 Ki
Chain of Human GPR35a isoform (Q9HC97 whole entry, canonical isoform): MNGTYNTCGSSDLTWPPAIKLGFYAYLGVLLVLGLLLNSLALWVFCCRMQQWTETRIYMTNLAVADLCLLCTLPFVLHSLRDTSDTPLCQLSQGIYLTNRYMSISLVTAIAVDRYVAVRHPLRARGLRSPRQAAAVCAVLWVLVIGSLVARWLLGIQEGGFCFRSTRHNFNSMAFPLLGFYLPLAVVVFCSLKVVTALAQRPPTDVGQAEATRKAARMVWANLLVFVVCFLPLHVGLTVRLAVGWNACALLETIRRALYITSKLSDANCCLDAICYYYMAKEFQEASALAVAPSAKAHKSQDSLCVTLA
Experimental: Overexpression of Human GPR35a Baculovirus in HEK293f cells at a cell density of 2.5×10^6 cells/mL and a multiplicity of infection of 2.5 over 24 h in Pro293 (Lonza)+5% FBS, 1% Glutamax and 0.4% Pen/Strep. Cells harvested and centrifuged at 2500 RPM for 10 mins at 4° C. The supernatant was then poured off and the pellet stored at −80° C. The pellet was defrosted and re-suspended in 15 mL of homogenising buffer (20 mM HEPES, 10 mM EDTA, pH 7.4). Then homogenised in mechanical homogeniser (VMR) for 10 seconds. The membrane was centrifuged in centrifuge tubes at 40,000 g for 15 mins at 4° C. The supernatant was poured away and re-suspended in 15 mL of homogenising buffer. Homogenised for 20 seconds. The membrane was centrifuged at 40,000 g for 45 mins at 4° C. The membrane was re-suspended in 3 mL of storage buffer (20 mM HEPES, 0.1 mM EDTA, pH 7.4) mixing well. The resulting membranes were then stored at −80°. GPR35 cell membrane homogenates were re-suspended in the binding buffer (50 mM TRIS+10 mM MgCl2 pH 7.4) to a final assay concentration of 5 ug/well. Test compounds were diluted in dimethylsulphoxide (DMSO (Sigma Aldrich, UK)), to form a 10 point ½ log concentration curve. Test compounds were added per plate, followed by 7 nM 3H-27966. 0.1 uM FAC Lodoxamide was added in order to allow non-specific binding to be calculated. Finally, membrane was added to each well on the plate. After 60 min incubation at room temperature, membranes were filtered onto a unifilter, 96-well white microplate with bonded GF/B filter, pre-soaked in ddH20, with a TomTec cell harvester, and washed 5 times with distilled water. Plates were dried prior to 50 ul/well scintillant added, sealed and radioactivity measured using a MicroBeta analyser. IC50 values were derived from the inhibition curve and affinity constant (Ki) values were calculated using the Cheng-Prussoff equation, where; pKi=−log 10 Ki.
as §1

Chain of GPR35 (Q9HC97 whole entry): as the sequence (Q9HC97 whole entry, canonical isoform) above

| SMILES | EC50 (GPR35) [nM] | Ki (Human GPR35a isoform) [nM] |
| --- | --- | --- |
| O=c1c(O)c(Nc2cc(-c3nn[nH]n3)cc(Oc3ccccc3)n2)c1=O [Example 22, 3-hydroxy-4-((6-phenoxy-4-(1H-tetrazol-5-yl)pyridin-2-yl)amino)cyclobut-3-ene-1,2-dione] | 1.39 | 3.66 |
| COc1cc(-c2nn[nH]n2)cc(Nc2c(O)c(=O)c2=O)n1 [Example 17, 3-hydroxy-4-((6-methoxy-4-(1H-tetrazol-5-yl)pyridin-2-yl)amino)cyclobut-3-ene-1,2-dione] | 9.25 | 7.85 |
| O=c1c(O)c(Nc2cc(-c3ccc4cn(CCOc5ccc(C(F)(F)F)cc5)nc4c3)cc(-c3nnn[nH]3)c2)c1=O [Example 23, 3-((3-(1H-tetrazol-5-yl)-5-(2-(2-(4-(trifluoromethyl)phenoxy)ethyl)-2H-indazol-6-yl)phenyl)amino)-4-hydroxycyclobut-3-ene-1,2-dione] | 0.12 | 0.46 |
| O=c1c(O)c(Nc2cc(-c3nn[nH]n3)cc(C3CC3)c2)c1=O [Example 24, 3-((3-cyclopropyl-5-(1H-tetrazol-5-yl)phenyl)amino)-4-hydroxycyclobut-3-ene-1,2-dione] | 8.19 | 15.2 |
| O=c1c(O)c(Nc2cc(-c3nn[nH]n3)cc(C(F)(F)F)c2)c1=O [Example 2, 3-((3-(1H-tetrazol-5-yl)-5-(trifluoromethyl)phenyl)amino)-4-hydroxycyclobut-3-ene-1,2-dione] | 0.9 | 0.48 |
| O=c1c(O)c(Nc2cc(-c3ccc4nn(Cc5ccc(C(F)(F)F)cc5)cc4c3)cc(-c3nn[nH]n3)c2)c1=O [Example 19, 3-((3-(1H-tetrazol-5-yl)-5-(2-(4-(trifluoromethyl)benzyl)-2H-indazol-5-yl)phenyl)amino)-4-hydroxycyclobut-3-ene-1,2-dione] | 0.08 | 0.36 |
| O=c1c(O)c(Nc2cc(-c3ccc(OCc4ccccc4)nc3)cc(-c3nn[nH]n3)c2)c1=O [Example 16, 3-((3-(6-(benzyloxy)pyridin-3-yl)-5-(1H-tetrazol-5-yl)phenyl)amino)-4-hydroxycyclobut-3-ene-1,2-dione] | 0.27 | 0.06 |
| O=c1c(O)c(Nc2cc(-c3ccc(OCc4ccc(C(F)(F)F)cc4)nc3)cc(-c3nn[nH]n3)c2)c1=O [Example 20, 3-((3-(1H-tetrazol-5-yl)-5-(6-((4-(trifluoromethyl)benzyl)oxy)pyridin-3-yl)phenyl)amino)-4-hydroxycyclobut-3-ene-1,2-dione] | 7.68 | 1.06 |
| O=c1c(O)c(Nc2ccc(Cl)c(-c3nn[nH]n3)c2)c1=O [Example 14, 3-((4-chloro-3-(1H-tetrazol-5-yl)phenyl)amino)-4-hydroxycyclobut-3-ene-1,2-dione] | 4.9 | 0.6 |
| COCCOc1ccc(CNC(=O)c2ccc(-c3cc(Nc4c(O)c(=O)c4=O)cc(-c4nn[nH]n4)c3)cc2)cc1 [Example 8, 3′-((2-hydroxy-3,4-dioxocyclobut-1-en-1-yl)amino)-N-(4-(2-methoxyethoxy)benzyl)-5′-(1H-tetrazol-5-yl)-[1,1′-biphenyl]-4-carboxamide] | 0.66 | 1.47 |
| CN(C)C(=O)c1ccc(-c2cc(Nc3c(O)c(=O)c3=O)cc(-c3nn[nH]n3)c2)cc1 [Example 30, 3′-((2-hydroxy-3,4-dioxocyclobut-1-en-1-yl)amino)-N,N-dimethyl-5′-(1H-tetrazol-5-yl)-[1,1′-biphenyl]-4-carboxamide] | 2.64 | 5.99 |
| O=c1c(O)c(Nc2cc(-c3ccc(OCCOc4ccc(C(F)(F)F)cc4)nc3)cc(-c3nn[nH]n3)c2)c1=O [Example 27, 3-((3-(1H-tetrazol-5-yl)-5-(6-(2-(4-(trifluoromethyl)phenoxy)ethoxy)pyridin-3-yl)phenyl)amino)-4-hydroxycyclobut-3-ene-1,2-dione] | 0.54 | 0.75 |
| O=c1c(O)c(Nc2cc(-c3nn[nH]n3)cc(-c3ccccc3)n2)c1=O [Example 18, 3-hydroxy-4-((6-phenyl-4-(1H-tetrazol-5-yl)pyridin-2-yl)amino)cyclobut-3-ene-1,2-dione] | 5.18 | 2.65 |
